Experimental data as given in PMC10141516 (Pharmaceutics, 2023).

Legend:
[1] = cited from earlier work
[2] = Stability study of the APIs in pH buffers (total impurity by HPLC); type: physicochemical
Experimental: The column used was the Gemini C18 column (5.0 μm, 250 mm). Mobile phase A of the impurity study was prepared with KH2PO4 buffer (v/v, solution adjusted to pH 6.0 with 1 M KOH): acetonitrile: methanol = 85: 10: 5 (v/v/v), and mobile phase B was prepared with 90% acetonitrile. The mobile phase was filtered through a 0.4 μm polypropylene membrane filter and degassed via sonication. The diluted solution was prepared with KH2PO4 buffer (v/v, solution adjusted to pH 6.0 with 1 M KOH) and acetonitrile at a ratio of 7:3 (v/v). The wavelength, flow rate, and injection volume were set to 220 nm, 1.0 mL/min, and 20 μL, respectively. The column and sample thermostats were set to 35 °C and 5 °C, respectively. In the case of the impurity study, the analysis was performed by changing the composition of the mobile phase for 80 min using a gradient elution method for 80 min.
[…] […] We performed a calibration test, and the sample was diluted with a diluted solution and prepared at a concentration of 0.05–1 mg/mL.

## CCOc1ccc(Cc2cc([C@@H]3O[C@H](CO)[C@@H](O)[C@H](O)[C@H]3O)ccc2Cl)cc1 [Dapagliflozin, (1S)-1,5-Anhydro-1-C-[4-chloro-3-[(4-ethoxyphenyl)methyl]phenyl]-D-glucitol (S)-propane-1,2-diol (1:1) monohydrate]
[1]
  BCS: Class 3
[2]; pH 1.2 buffer, 20 ± 2 °C/60 ± 5% RH, 3 Days
  Total Impurity: 0.08%
[2]; pH 1.2 buffer, 20 ± 2 °C/60 ± 5% RH, 7 Days
  Total Impurity: 0.12%
[2]; pH 1.2 buffer, 40 ± 2 °C/75 ± 5% RH, 3 Days
  Total Impurity: 0.11%
[2]; pH 1.2 buffer, 40 ± 2 °C/75 ± 5% RH, 7 Days
  Total Impurity: 0.73%
[2]; pH 1.2 buffer, Initial
  Total Impurity: 0.06%
[2]; pH 2.0 buffer, 20 ± 2 °C/60 ± 5% RH, 3 Days
  Total Impurity: 0.00%
[2]; pH 2.0 buffer, 20 ± 2 °C/60 ± 5% RH, 7 Days
  Total Impurity: 0.00%
[2]; pH 2.0 buffer, 40 ± 2 °C/75 ± 5% RH, 3 Days
  Total Impurity: 0.02%
[2]; pH 2.0 buffer, 40 ± 2 °C/75 ± 5% RH, 7 Days
  Total Impurity: 1.03%
[2]; pH 2.0 buffer, Initial
  Total Impurity: 0.00%
[2]; pH 3.0 buffer, 20 ± 2 °C/60 ± 5% RH, 3 Days
  Total Impurity: 1.30%
[2]; pH 3.0 buffer, 20 ± 2 °C/60 ± 5% RH, 7 Days
  Total Impurity: 1.99%
[2]; pH 3.0 buffer, 40 ± 2 °C/75 ± 5% RH, 3 Days
  Total Impurity: 7.29%
[2]; pH 3.0 buffer, 40 ± 2 °C/75 ± 5% RH, 7 Days
  Total Impurity: 14.76%
[2]; pH 3.0 buffer, Initial
  Total Impurity: 0.06%
[2]; pH 4.0 buffer, 20 ± 2 °C/60 ± 5% RH, 3 Days
  Total Impurity: 0.00%
[2]; pH 4.0 buffer, 20 ± 2 °C/60 ± 5% RH, 7 Days
  Total Impurity: 0.01%
[2]; pH 4.0 buffer, 40 ± 2 °C/75 ± 5% RH, 3 Days
  Total Impurity: 0.04%
[2]; pH 4.0 buffer, 40 ± 2 °C/75 ± 5% RH, 7 Days
  Total Impurity: 0.12%
[2]; pH 4.0 buffer, Initial
  Total Impurity: 0.00%
[2]; pH 5.0 buffer, 20 ± 2 °C/60 ± 5% RH, 3 Days
  Total Impurity: 0.16%
[2]; pH 5.0 buffer, 20 ± 2 °C/60 ± 5% RH, 7 Days
  Total Impurity: 0.26%
[2]; pH 5.0 buffer, 40 ± 2 °C/75 ± 5% RH, 7 Days
  Total Impurity: 4.48%
[2]; pH 5.0 buffer, Initial
  Total Impurity: 0.00%
[2]; pH 6.0 buffer, 20 ± 2 °C/60 ± 5% RH, 3 Days
  Total Impurity: 0.00%
[2]; pH 6.0 buffer, 20 ± 2 °C/60 ± 5% RH, 7 Days
  Total Impurity: 0.04%
[2]; pH 6.0 buffer, 40 ± 2 °C/75 ± 5% RH, 3 Days
  Total Impurity: 0.15%
[2]; pH 6.0 buffer, 40 ± 2 °C/75 ± 5% RH, 7 Days
  Total Impurity: 0.28%
[2]; pH 6.0 buffer, Initial
  Total Impurity: 0.00%
[2]; pH 6.8 buffer, 20 ± 2 °C/60 ± 5% RH, 3 Days
  Total Impurity: 0.01%
[2]; pH 6.8 buffer, 20 ± 2 °C/60 ± 5% RH, 7 Days
  Total Impurity: 0.01%
[2]; pH 6.8 buffer, 40 ± 2 °C/75 ± 5% RH, 3 Days
  Total Impurity: 0.00%
[2]; pH 6.8 buffer, 40 ± 2 °C/75 ± 5% RH, 7 Days
  Total Impurity: 0.12%
[2]; pH 6.8 buffer, Initial
  Total Impurity: 0.00%
[2]; pH 7.0 buffer, 20 ± 2 °C/60 ± 5% RH, 3 Days
  Total Impurity: 0.02%
[2]; pH 7.0 buffer, 20 ± 2 °C/60 ± 5% RH, 7 Days
  Total Impurity: 0.04%
[2]; pH 7.0 buffer, 40 ± 2 °C/75 ± 5% RH, 3 Days
  Total Impurity: 0.7%
[2]; pH 7.0 buffer, 40 ± 2 °C/75 ± 5% RH, 7 Days
  Total Impurity: 0.69%
[2]; pH 7.0 buffer, Initial
  Total Impurity: 0.00%
[2]; pH 8.0 buffer, 20 ± 2 °C/60 ± 5% RH, 3 Days
  Total Impurity: 0.03%
[2]; pH 8.0 buffer, 20 ± 2 °C/60 ± 5% RH, 7 Days
  Total Impurity: 0.05%
[2]; pH 8.0 buffer, 40 ± 2 °C/75 ± 5% RH, 3 Days
  Total Impurity: 0.42%
[2]; pH 8.0 buffer, 40 ± 2 °C/75 ± 5% RH, 7 Days
  Total Impurity: 1.06%
[2]; pH 8.0 buffer, Initial
  Total Impurity: 0.00%
[2]; pH 9.0 buffer, 20 ± 2 °C/60 ± 5% RH, 3 Days
  Total Impurity: 1.27%
[2]; pH 9.0 buffer, 20 ± 2 °C/60 ± 5% RH, 7 Days
  Total Impurity: 1.47%
[2]; pH 9.0 buffer, 40 ± 2 °C/75 ± 5% RH, 3 Days
  Total Impurity: 3.90%
[2]; pH 9.0 buffer, 40 ± 2 °C/75 ± 5% RH, 7 Days
  Total Impurity: 6.31%
[2]; pH 9.0 buffer, Initial
  Total Impurity: 1.02%
